{"source": "patent US11524962B2", "about": "“Substituted pyrrolo[2,3-d]pyrimidines as inhibitors of protein arginine methyl transferase 5 (PRMT5)” (PRELUDE THERAPEUTICS, INCORPORATED, priority 2017, dated 2022)", "key": {"[1]": {"system": "Granta-519 mouse xenograft", "experiment": "Tumor growth inhibition in Granta-519 mouse xenograft model", "format": "in vivo", "procedure": "Granta-519 cells was maintained in DMEM medium supplemented with 10% fetal bovine serum and 2 mM L-Glutamine at 37° C. in an atmosphere of 5% CO2 in air. Cells in exponential growth phase were harvested and 1×10^7 cells in 0.1 mL of PBS with Matrigel (1:1) were injected subcutaneously at the right lower flank region of each mouse for tumor development. The treatments were started when the mean tumor size reaches approximately 300-400 mm^3. […] Example 1 or vehicle (0.5% Na CMC+0.5% Tween80, suspension) were administered orally (BID or QD for Example 1, QD for vehicle) at a dose of 25 mg/kg BID and 50 mg/kg QD for 16 and 20 days, respectively. Body weights and tumor size were measured every 3 to 4 days after randomization. Animals were euthanized 12 hours after last dosing, and blood and tumor samples were collected for analysis."}, "[2]": {"system": "Symmetric Di-Methyl Arginine (sDMA) marks in U-87 MG cells", "experiment": "sDMA Western blot / In Cell Western in U-87 MG cells", "format": "cell-based", "details": "Homo sapiens, 72 h, 3 days, read-out: sDMA_U87 IC50", "procedure": "Compound titration and cell culture: Compounds were dissolved in DMSO to make 10 mM stock and 3-fold series dilutions were further conducted to make working stocks top at 1 mM. Granta-519 cells were maintained in PRMI 1640 (Corning Cellgro, Catalog #: 10-040-CV) supplemented with 10% v/v FBS (GE Healthcare, Catalog #: SH30910.03) and U-87 MG cells were maintained in DMEM (Corning Cellgro, Catalog #: 10-013-CV) with 10% FBS and 2 mM Glutamin (Corning Cellgro, Catalog #25005CV).\nTo determine enzyme inhibition IC50 values in Granta-519 and U-87 MG cells using Western Blot analysis. One day before experiment, Granta-519 cells were passaged to a density of 0.5×10^6 cells/ml. U-87 MG cells were trypsinized and 4×10^5 cells were seeded into 6-well plates and allow to grow overnight. The next day, Granta-519 cells were spun down at 1,500 rpm for 4 min, resuspend in fresh medium at 0.5×10^6 cells/ml and 3 mL of culture (1.5×10^6 cells) were seeded into 6 well plate. Eight-point, 3-fold serial dilutions of compound working stocks were added to cells (3 ul, 1:1,000 dilution, DMSO concentration was 0.1%; final top concentration at 1 uM) and incubated for 3 days. Cells incubated with DMSO was used as a vehicle control.\nCells were harvested 3 days later, resuspended in 15 uL PBS, lysed in 4% SDS, and homogenized by passing through homogenizer column (Omega Biotek, Catalog #: HCR003). Total protein concentrations were determined by BCA assay (ThermoFisher Scientific, Catalog #: 23225). Lysates were mixed with 5× Laemmli buffer and boiled for 5 min. Forty ug of total protein was separated on SDS-PAGE gels (Bio-Rad, catalog #: 4568083, 4568043), transferred to PVDF membrane, blocked with 5% dry milk (Bio-Rad, Catalog #: 1706404) in TBS with 0.1% v/v Tween 20 (TBST) for 1 hour at room temperature (RT), and incubated with primary antibodies (sDMA: Cell signaling, Catalog #: 13222, 1:3,000; β-Actin: sigma, Catalog #: 1:5,000) in 5% dry milk in TBST at 4° C. overnight. The next day, membranes were washed with TBST, 5×5 min, and incubated with HRP conjugated seconded antibody (GE Healthcare; Catalog #: NA934-1ML, NA931-1ML; 1:5,000) for 2 hours at RT, followed by 5×5 min washes with TBST, and incubation with ECL substrates (Bio-Rad, Catalog #: 1705061, 1705062). Chemiluminescent signal was captured with Fluochem HD2 imager (Proteinsimple). SmD3me2s bands were quantified by ImageJ. Signals were normalized to β-Actin and DMSO control. IC50 values were calculated using Graphpad Prism ([Inhibitor]vs. normalized response−Variable slope).\nU87-MG cells were trypsinized one day before the experiment, seeded into a 384-well plate at 2500 cells/well using a Multidrop Combi Dispenser (ThermoFisher) and allowed to grow overnight. The next day (day 0), a series of 9-point, 3-fold serial dilutions of compounds were prepared and dispensed into wells from a 1 mM stock solution using a TECAN digital dispenser (D300e) and the DMSO % concentration was normalized to 0.1%. Three days later, media was removed, and cells were processed as described above.\nTo determine IC50 values, the ratio for each well was calculated (sDMA 800 nm value/DRAQ5 700 nm value). Each plate included 28 negative control wells (DMSO only, minimum inhibition) and 18 positive control wells for maximum inhibition (treated with 3 uM of a reference compounds, background wells). The average ratios of minimum and maximum inhibition controls were calculated and used to determine the percentage of sDMA, relative to DMSO, for each well in the plate.\nThese procedures generated the sDMA data in Table 7."}}}
{"smiles": "C[C@@](O)(c1ccc2c(c1)CC2)[C@H]1O[C@@H](n2ccc3c(N)ncnc32)[C@H](O)[C@@H]1O", "note": "[Example 1, (2R,3R,4S,5S)-2-(4-amino-7H-pyrrolo[2,3-d]pyrimidin-7-yl)-5-((R)-1-(bicyclo[4.2.0]octa-1(6),2,4-trien-3-yl)-1-hydroxyethyl)tetrahydrofuran-3,4-diol]", "values": [{"measurement": "body weight loss", "setting": "[1]; 25 mg/kg BID oral, 16 days", "result": 6.75, "unit": "%"}, {"measurement": "tumor growth inhibition", "setting": "[1]; 25 mg/kg BID oral, 16 days", "result": 76.7, "unit": "%"}, {"measurement": "body weight gain", "setting": "[1]; 50 mg/kg QD oral, 20 days", "result": 10.1, "unit": "%"}, {"measurement": "tumor growth inhibition", "setting": "[1]; 50 mg/kg QD oral, 20 days", "result": 5.8, "unit": "%"}]}
{"smiles": "Nc1ncnc2c1c(F)cn2[C@@H]1O[C@H]([C@H](O)c2ccc3c(c2)CC3)[C@@H](O)[C@H]1O", "note": "[Example 6, (2R,3R,4S,5R)-2-(4-amino-5-fluoro-7H-pyrrolo[2,3-d]pyrimidin-7-yl)-5-((R)-bicyclo[4.2.0]octa-1(6),2,4-trien-3-yl(hydroxy)methyl)tetrahydrofuran-3,4-diol]", "values": [{"measurement": "IC50", "setting": "[2]", "result": 94, "unit": "nM"}]}
{"smiles": "Cc1ncnc2c1ccn2[C@@H]1O[C@H]([C@H](O)c2ccc3c(c2)CC3)[C@@H](O)[C@H]1O", "note": "[Example 11, (2R,3S,4R,5R)-2-((R)-bicyclo[4.2.0]octa-1(6),2,4-trien-3-yl(hydroxy)methyl)-5-(4-methyl-7H-pyrrolo[2,3-d]pyrimidin-7-yl)tetrahydrofuran-3,4-diol]", "values": [{"measurement": "IC50", "setting": "[2]", "result": 53, "unit": "nM"}]}
